The assay concerns MV-4-11 cells. Put plainly: Gene expression microarray analysis (Affymetrix PrimeView) and GSEA. Set-up: RFU PODN (11730768_x_at) / Fold change /veh PODN (11730768_x_at) / RFU LINC00158 (11744669_a_at) / Fold change /veh LINC00158 (11744669_a_at) / RFU DUSP10 (11751237_a_at) / Fold change /veh DUSP10 (11751237_a_at) / RFU ID3 (11757404_x_at) / Fold change /veh ID3 (11757404_x_at) / RFU PLEKHG5 (11737974_s_at) / Fold change /veh PLEKHG5 (11737974_s_at) / RFU LRRC4B (11730491_at) / Fold change /veh LRRC4B (11730491_at) / RFU GIMAP4 (11747438_a_at) / Fold change /veh GIMAP4 (11747438_a_at) / RFU KRT8 (11758183_x_at) / Fold change /veh KRT8 (11758183_x_at) / RFU CNN1 (11734310_a_at) / Fold change /veh CNN1 (11734310_a_at) / RFU VPS37D (11726825_at) / Fold change /veh VPS37D (11726825_at) / RFU C10orf10 (11716522_x_at) / Fold change /veh C10orf10 (11716522_x_at) / RFU KIR2DL2 /// KIR2DL4 /// KIR2DL5A /// KIR2DL5B /// KIR2DS1 /// KIR2DS2 /// KIR2DS3 /// KIR2DS4 /// KIR3DL3 /// KIR3DL3 /// KIR3DS1 (11738374_at) / Fold change /veh KIR2DL2 /// KIR2DL4 /// KIR2DL5A /// KIR2DL5B /// KIR2DS1 /// KIR2DS2 /// KIR2DS3 /// KIR2DS4 /// KIR3DL3 /// KIR3DL3 /// KIR3DS1 (11738374_at) / RFU C1QL1 (11718748_at) / Fold change /veh C1QL1 (11718748_at) / RFU TMPRSS4 (11747572_a_at) / Fold change /veh TMPRSS4 (11747572_a_at) / RFU HAMP (11756126_x_at) / Fold change /veh HAMP (11756126_x_at) / RFU RNFT2 (11725882_a_at) / Fold change /veh RNFT2 (11725882_a_at) / RFU NR4A2 (11747474_a_at) / Fold change /veh NR4A2 (11747474_a_at) / RFU ABCC12 (11746883_a_at) / Fold change /veh ABCC12 (11746883_a_at) / RFU TMEM136 (11760407_x_at) / Fold change /veh TMEM136 (11760407_x_at) / RFU CLDN22 /// WWC2 (11732394_at) / Fold change /veh CLDN22 /// WWC2 (11732394_at) / RFU HLA-DPB1 (11760878_x_at) / Fold change /veh HLA-DPB1 (11760878_x_at) / RFU SPINT1 (11716480_a_at) / Fold change /veh SPINT1 (11716480_a_at) / RFU GAP43 (11754022_s_at) / Fold change /veh GAP43 (11754022_s_at) / RFU A4GNT (11735810_at) / Fold change /veh A4GNT (11735810_at) / RFU PRB3 (11715151_x_at) / Fold change /veh PRB3 (11715151_x_at) / RFU TUBB4B (11761932_at) / Fold change /veh TUBB4B (11761932_at) / RFU CAPN14 (11732068_a_at) / Fold change /veh CAPN14 (11732068_a_at) / RFU TMCC2 (11721928_a_at) / Fold change /veh TMCC2 (11721928_a_at) / RFU IRGQ (11745062_a_at) / Fold change /veh IRGQ (11745062_a_at) / RFU FAM174B (11720279_a_at) / Fold change /veh FAM174B (11720279_a_at) / RFU TMPRSS4 (11748680_a_at) / Fold change /veh TMPRSS4 (11748680_a_at) / RFU FAM212B (11763350_a_at) / Fold change /veh FAM212B (11763350_a_at) / RFU PLEKHG5 (11743358_a_at) / Fold change /veh PLEKHG5 (11743358_a_at) / RFU ZSCAN30 (11745921_a_at) / Fold change /veh ZSCAN30 (11745921_a_at) / RFU CMKLR1 (11741424_a_at) / Fold change /veh CMKLR1 (11741424_a_at) / RFU LOC101060620 /// MAPK8IP1 (11723275_at) / Fold change /veh LOC101060620 /// MAPK8IP1 (11723275_at) / RFU SPTSSB (11747773_x_at) / Fold change /veh SPTSSB (11747773_x_at) / RFU PRSS12 (11739890_at) / Fold change /veh PRSS12 (11739890_at) / RFU BIN1 (11741810_x_at) / Fold change /veh BIN1 (11741810_x_at) / RFU WNT11 (11732464_a_at) / Fold change /veh WNT11 (11732464_a_at) / RFU C10orf10 (11716521_a_at) / Fold change /veh C10orf10 (11716521_a_at) / RFU C5orf56 (11738089_at) / Fold change /veh C5orf56 (11738089_at) / RFU CYB561 (11721691_x_at) / Fold change /veh CYB561 (11721691_x_at) / RFU ANKRD19P (11752326_a_at) / Fold change /veh ANKRD19P (11752326_a_at) / RFU OR2T12 /// OR2T33 /// OR2T8 (11738714_s_at) / Fold change /veh OR2T12 /// OR2T33 /// OR2T8 (11738714_s_at) / RFU VCAN (11748164_a_at) / Fold change /veh VCAN (11748164_a_at) / RFU JSRP1 (11732532_at) / Fold change /veh JSRP1 (11732532_at) / RFU KRTAP10-11 (11738290_x_at) / Fold change /veh KRTAP10-11 (11738290_x_at) / RFU MYO3A (11730013_a_at) / Fold change /veh MYO3A (11730013_a_at) / RFU EBF3 (11725865_a_at) / Fold change /veh EBF3 (11725865_a_at) / RFU CAMK2N1 (11719241_x_at) / Fold change /veh CAMK2N1 (11719241_x_at) / RFU C5orf56 (11738088_a_at) / Fold change /veh C5orf56 (11738088_a_at) / RFU OLFML3 (11715873_a_at) / Fold change /veh OLFML3 (11715873_a_at) / RFU LOC100653217 /// NTM (11731650_a_at) / Fold change /veh LOC100653217 /// NTM (11731650_a_at) / RFU MAPK11 (11762145_a_at) / Fold change /veh MAPK11 (11762145_a_at) / RFU FIZ1 (11724087_x_at) / Fold change /veh FIZ1 (11724087_x_at) / RFU OASL (11726364_x_at) / Fold change /veh OASL (11726364_x_at) / RFU SOX15 (11748057_x_at) / Fold change /veh SOX15 (11748057_x_at) / RFU CD79A (11719716_a_at) / Fold change /veh CD79A (11719716_a_at) / RFU HIST1H1D (11736915_at) / Fold change /veh HIST1H1D (11736915_at) / RFU CASKIN2 (11723855_a_at) / Fold change /veh CASKIN2 (11723855_a_at) / RFU LOC730098 (11760151_x_at) / Fold change /veh LOC730098 (11760151_x_at) / RFU OR4N2 (11742367_at) / Fold change /veh OR4N2 (11742367_at) / RFU PRRT2 (11749266_a_at) / Fold change /veh PRRT2 (11749266_a_at) / RFU SNX32 (11753110_a_at) / Fold change /veh SNX32 (11753110_a_at) / RFU CDHR5 (11726645_a_at) / Fold change /veh CDHR5 (11726645_a_at) / RFU RCAN1 (11760418_a_at) / Fold change /veh RCAN1 (11760418_a_at) / RFU FAM167A (11723789_a_at) / Fold change /veh FAM167A (11723789_a_at) / RFU FAM26E (11764081_at) / Fold change /veh FAM26E (11764081_at) / RFU ISYNA1 (11749810_s_at) / Fold change /veh ISYNA1 (11749810_s_at) / RFU ACY1 (11761880_at) / Fold change /veh ACY1 (11761880_at) / RFU 11764098_at / Fold change /veh 11764098_at / RFU SAMD14 (11745864_x_at) / Fold change /veh SAMD14 (11745864_x_at) / RFU NPB (11741838_a_at) / Fold change /veh NPB (11741838_a_at) / RFU TMPRSS6 (11731388_a_at) / Fold change /veh TMPRSS6 (11731388_a_at) / RFU KRTAP10-2 (11738614_at) / Fold change /veh KRTAP10-2 (11738614_at) / RFU ARHGAP8 /// PRR5-ARHGAP8 (11727945_x_at) / Fold change /veh ARHGAP8 /// PRR5-ARHGAP8 (11727945_x_at) / RFU KRTAP5-7 /// NADSYN1 (11734609_at) / Fold change /veh KRTAP5-7 /// NADSYN1 (11734609_at) / RFU RASL12 (11751679_a_at) / Fold change /veh RASL12 (11751679_a_at) / RFU CDKN2B (11736163_a_at) / Fold change /veh CDKN2B (11736163_a_at) / RFU PRF1 (11729649_at) / Fold change /veh PRF1 (11729649_at) / RFU, ZNF638 /// ZNF638-IT1 / Fold change vs veh, ZNF638 /// ZNF638-IT1 / RFU, PANK3 / Fold change vs veh, PANK3 / RFU, SH3YL1 / Fold change vs veh, SH3YL1 / RFU, ZEB2 / Fold change vs veh, ZEB2 / RFU, NRIP1 / Fold change vs veh, NRIP1 / RFU, PTTG1IP / Fold change vs veh, PTTG1IP / RFU, CAPN2 / Fold change vs veh, CAPN2 / RFU, MED14 / Fold change vs veh, MED14 / RFU, SNORA58 / Fold change vs veh, SNORA58 / RFU, C1orf63 / Fold change vs veh, C1orf63 / RFU, LRRFIP1 / Fold change vs veh, LRRFIP1 / RFU, NDUFAF7 / Fold change vs veh, NDUFAF7 / RFU, SLC12A2 / Fold change vs veh, SLC12A2 / RFU, IBTK / Fold change vs veh, IBTK / RFU, ESF1 / Fold change vs veh, ESF1 / Fold change vs veh, TMEM50B / RFU, TAOK1 / Fold change vs veh, TAOK1 / RFU, ACBD3 / Fold change vs veh, ACBD3 / RFU, TMA16 / Fold change vs veh, TMA16 / RFU, RWDD3 / Fold change vs veh, RWDD3 / RFU, BCAT1 / Fold change vs veh, BCAT1 / RFU, EDEM3 / Fold change vs veh, EDEM3 / RFU, TMEM33 / Fold change vs veh, TMEM33 / RFU, WDR75 / Fold change vs veh, WDR75 / RFU, AHCTF1 / Fold change vs veh, AHCTF1 / RFU, TFRC / Fold change vs veh, TFRC / RFU, ZDHHC17 / Fold change vs veh, ZDHHC17 / RFU, NOM1 / Fold change vs veh, NOM1 / RFU, ARL8B / Fold change vs veh, ARL8B / RFU, ZBTB11 / Fold change vs veh, ZBTB11 / RFU, TAMM41 / Fold change vs veh, TAMM41 / RFU, KIAA1704 /// LOC100996395 / Fold change vs veh, KIAA1704 /// LOC100996395 / RFU, ING1 / Fold change vs veh, ING1 / RFU, TRMT61B / Fold change vs veh, TRMT61B / RFU, FUBP3 / Fold change vs veh, FUBP3 / RFU, TP53 / Fold change vs veh, TP53 / RFU, TNKS2 / Fold change vs veh, TNKS2 / RFU, ZFP14 / Fold change vs veh, ZFP14 / RFU, ACTR2 / Fold change vs veh, ACTR2 / RFU, PPP3R1 / Fold change vs veh, PPP3R1 / RFU, PIK3R1 / Fold change vs veh, PIK3R1 / RFU, HNRNPA1 / Fold change vs veh, HNRNPA1 / RFU, RNF170 / Fold change vs veh, RNF170 / RFU, ZNF28 / Fold change vs veh, ZNF28 / RFU, RNGTT / Fold change vs veh, RNGTT / RFU, OGT / Fold change vs veh, OGT / RFU, BRD1 / Fold change vs veh, BRD1 / RFU, MARS / Fold change vs veh, MARS / RFU, ZNF655 / Fold change vs veh, ZNF655 / RFU, FAHD1 / Fold change vs veh, FAHD1 / RFU, BDP1 / Fold change vs veh, BDP1 / RFU, LRRCC1 / Fold change vs veh, LRRCC1 / RFU, ARID1A / Fold change vs veh, ARID1A / RFU, ZNF146 / Fold change vs veh, ZNF146 / RFU, ZNF330 / Fold change vs veh, ZNF330 / RFU, GPN3 / Fold change vs veh, GPN3 / RFU, C9orf123 / Fold change vs veh, C9orf123 / RFU, N4BP2L2 / Fold change vs veh, N4BP2L2 / RFU, ARFIP1 / Fold change vs veh, ARFIP1 / RFU, FAM179B / Fold change vs veh, FAM179B / RFU, BCL10 / Fold change vs veh, BCL10 / RFU, UHRF1BP1L / Fold change vs veh, UHRF1BP1L / RFU, BET1 / Fold change vs veh, BET1 / RFU, CNOT2 / Fold change vs veh, CNOT2 / RFU, ZNF268 / Fold change vs veh, ZNF268 / Fold change vs veh, ZNF507 / RFU, DGCR2 / Fold change vs veh, DGCR2 / RFU, WDSUB1 / Fold change vs veh, WDSUB1 / Fold change vs veh, HSP90B1 /// MIR3652 / RFU, ADSS / Fold change vs veh, ADSS / RFU, GK / Fold change vs veh, GK / RFU, ZNF148 / Fold change vs veh, ZNF148 / RFU, TAF9 / Fold change vs veh, TAF9 / RFU, SLC1A5 / Fold change vs veh, SLC1A5 / RFU, SLMO2 / Fold change vs veh, SLMO2 / RFU, ABCC4 / Fold change vs veh, ABCC4 / RFU, LOC101060439 /// RAP1B / Fold change vs veh, LOC101060439 /// RAP1B / RFU, RFX7 / Fold change vs veh, RFX7 / RFU, GTPBP10 / Fold change vs veh, GTPBP10 / RFU, CNEP1R1 / Fold change vs veh, CNEP1R1 / RFU, BIVM-ERCC5 /// ERCC5 / Fold change vs veh, BIVM-ERCC5 /// ERCC5 / RFU, ILF3 / Fold change vs veh, ILF3 / RFU 11762660_at / Fold change /veh 11762660_at / RFU VCAN (11757783_s_at) / Fold change /veh VCAN (11757783_s_at) / RFU DDX43 (11728927_at) / Fold change /veh DDX43 (11728927_at) / RFU KRT8 (11758188_x_at) / Fold change /veh KRT8 (11758188_x_at) / RFU NKD1 (11759106_at) / Fold change /veh NKD1 (11759106_at) / RFU SRD5A1 (11742802_a_at) / Fold change /veh SRD5A1 (11742802_a_at) / RFU TPSAB1 /// TPSB2 (11721975_s_at) / Fold change /veh TPSAB1 /// TPSB2 (11721975_s_at) / RFU GSTM3 (11746129_a_at) / Fold change /veh GSTM3 (11746129_a_at) / RFU IL23R (11737362_x_at) / Fold change /veh IL23R (11737362_x_at) / RFU TMEM51 (11727254_a_at) / Fold change /veh TMEM51 (11727254_a_at) / RFU PIWIL2 (11732686_x_at) / Fold change /veh PIWIL2 (11732686_x_at) / RFU ORM1 (11744905_x_at) / Fold change /veh ORM1 (11744905_x_at) / RFU CCDC152 (11743942_at) / Fold change /veh CCDC152 (11743942_at) / RFU ECM1 (11717891_a_at) / Fold change /veh ECM1 (11717891_a_at) / RFU IL23R (11748794_a_at) / Fold change /veh IL23R (11748794_a_at) / RFU TNFAIP8L3 (11732012_x_at) / Fold change /veh TNFAIP8L3 (11732012_x_at) / RFU MBOAT4 (11741988_at) / Fold change /veh MBOAT4 (11741988_at) / RFU 11764193_at / Fold change /veh 11764193_at / RFU TMEM53 (11763286_at) / Fold change /veh TMEM53 (11763286_at) / RFU MAGEB2 (11727129_at) / Fold change /veh MAGEB2 (11727129_at) / RFU TMEM200A (11744735_a_at) / Fold change /veh TMEM200A (11744735_a_at) / RFU CCDC152 (11751479_a_at) / Fold change /veh CCDC152 (11751479_a_at) / RFU FAM211A (11726209_a_at) / Fold change /veh FAM211A (11726209_a_at) / RFU RGS16 (11746705_a_at) / Fold change /veh RGS16 (11746705_a_at) / RFU VCAN (11755009_s_at) / Fold change /veh VCAN (11755009_s_at) / RFU RHOB (11743442_s_at) / Fold change /veh RHOB (11743442_s_at) / RFU RGS16 (11720943_a_at) / Fold change /veh RGS16 (11720943_a_at) / RFU RGS16 (11720944_at) / Fold change /veh RGS16 (11720944_at) / RFU, VPS4B / Fold change vs veh, VPS4B / RFU, CREB1 / Fold change vs veh, CREB1 / RFU, DNAJC13 / Fold change vs veh, DNAJC13 / RFU, GNAQ / Fold change vs veh, GNAQ / RFU, CDK5R1 / Fold change vs veh, CDK5R1 / RFU, ZRANB3 / Fold change vs veh, ZRANB3 / RFU, CUL4A / Fold change vs veh, CUL4A / RFU, CCNY / Fold change vs veh, CCNY / RFU, UFL1 / Fold change vs veh, UFL1 / RFU, COG3 / Fold change vs veh, COG3 / RFU, DIAPH2 / Fold change vs veh, DIAPH2 / RFU, SKA2 / Fold change vs veh, SKA2 / RFU, AFF3 / Fold change vs veh, AFF3 / RFU, LMF1 / Fold change vs veh, LMF1 / RFU, IPO11 / Fold change vs veh, IPO11 / RFU, DFFB / Fold change vs veh, DFFB / RFU, FOXP1 / Fold change vs veh, FOXP1 / RFU, CARD8 / Fold change vs veh, CARD8 / RFU, STRN3 / Fold change vs veh, STRN3 / RFU, ADK / Fold change vs veh, ADK / RFU, RASSF2 / Fold change vs veh, RASSF2 / RFU, WIPF1 / Fold change vs veh, WIPF1 / RFU, LARP1B / Fold change vs veh, LARP1B / RFU, RASA1 / Fold change vs veh, RASA1 / RFU, RB1 / Fold change vs veh, RB1 / RFU, PPFIA1 / Fold change vs veh, PPFIA1 / RFU, MAT2A / Fold change vs veh, MAT2A / RFU, CCT5 / Fold change vs veh, CCT5 / RFU, WDR92 / Fold change vs veh, WDR92 / RFU, CUX1 / Fold change vs veh, CUX1 / RFU, TTC7A / Fold change vs veh, TTC7A / RFU, TMEM135 / Fold change vs veh, TMEM135 / RFU, DEPTOR / Fold change vs veh, DEPTOR / RFU, CPM / Fold change vs veh, CPM / RFU, DNAJB6 / Fold change vs veh, DNAJB6 / RFU, CACNA2D3 / Fold change vs veh, CACNA2D3 / RFU, DTX4 / Fold change vs veh, DTX4 / RFU, TFCP2 / Fold change vs veh, TFCP2 / RFU, GMCL1 /// GMCL1P1 / Fold change vs veh, GMCL1 /// GMCL1P1 / RFU, AEBP2 / Fold change vs veh, AEBP2 / RFU, SNHG1 /// SNORD22 /// SNORD25 /// SNORD26 /// SNORD27 /// SNORD28 /// SNORD29 /// SNORD31 / Fold change vs veh, SNHG1 /// SNORD22 /// SNORD25 /// SNORD26 /// SNORD27 /// SNORD28 /// SNORD29 /// SNORD31 / Fold change (Aza/veh), C12orf56 (ProbeSet 11735607_a_at) / Fold change (ACY-1035/veh), C12orf56 (ProbeSet 11735607_a_at) / Fold change (Aza/veh), FGFR1OP (ProbeSet 11751329_s_at) / Fold change (ACY-1035/veh), FGFR1OP (ProbeSet 11751329_s_at) / Fold change (Aza/veh), VPS36 (ProbeSet 11739960_a_at) / Fold change (ACY-1035/veh), VPS36 (ProbeSet 11739960_a_at) / RFU SYPL1 (11715823_x_at) / Fold change /veh SYPL1 (11715823_x_at) / RFU IGFBP7 (11715501_s_at) / Fold change /veh IGFBP7 (11715501_s_at) / RFU REEP3 (11722064_at) / Fold change /veh REEP3 (11722064_at) / RFU IGLL1 (11728026_x_at) / Fold change /veh IGLL1 (11728026_x_at): dose or concentration left out as unconfirmed. The conditions noted are these: MV-4-11 cells, 48 hours. The class given is cell-based, human.

For the compound `Nc1ncn([C@@H]2O[C@H](CO)[C@@H](O)[C@H]2O)c(=O)n1` [azacitidine], the “Fold change /veh RGS16 (11746705_a_at)” value worked out at 1.56.

Values taken from paper PMC5218480 (PLoS ONE, 2017).
